Biological target: T1, DYRK1B (dual-specificity tyrosine phosphorylation-regulated kinase 1B) (Homo sapiens, UniProt Q9Y463)
T1 construct: Human DYRK1B recombinant protein (#PV4649)
Assay: LanthaScreen Eu Kinase Binding Assay (TR-FRET displacement of kinase tracer […]), recombinant protein

T1 sequence (Q9Y463 whole entry): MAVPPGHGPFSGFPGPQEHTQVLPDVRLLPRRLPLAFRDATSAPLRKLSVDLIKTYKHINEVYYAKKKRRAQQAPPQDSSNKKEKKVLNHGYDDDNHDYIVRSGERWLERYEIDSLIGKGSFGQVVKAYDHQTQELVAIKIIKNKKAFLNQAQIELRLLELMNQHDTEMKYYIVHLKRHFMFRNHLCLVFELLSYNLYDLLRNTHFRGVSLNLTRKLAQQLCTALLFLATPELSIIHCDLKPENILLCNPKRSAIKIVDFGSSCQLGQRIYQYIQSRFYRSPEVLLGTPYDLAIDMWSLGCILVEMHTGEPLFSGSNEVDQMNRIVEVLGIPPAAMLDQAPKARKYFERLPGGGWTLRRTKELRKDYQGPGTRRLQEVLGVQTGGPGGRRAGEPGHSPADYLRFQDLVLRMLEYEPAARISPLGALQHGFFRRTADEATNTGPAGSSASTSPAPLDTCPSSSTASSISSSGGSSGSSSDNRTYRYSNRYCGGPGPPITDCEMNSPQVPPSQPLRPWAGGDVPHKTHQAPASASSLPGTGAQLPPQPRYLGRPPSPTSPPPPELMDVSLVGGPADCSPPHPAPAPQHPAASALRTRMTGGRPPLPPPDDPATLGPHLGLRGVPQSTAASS

IC50: 18 nM
Structure (SMILES): COc1ccc(-c2n[nH]c3ncc(-c4ccc(NC(C)=O)cc4)cc23)cc1 [KS-40070, N-(4-(3-(4-methoxyphenyl)-1H-pyrazolo [3,4-b]pyridin-5-yl)phenyl)acetamide]

Source: article PMC12339561, “Discovery of a selective dual-specificity tyrosine phosphorylation-regulated kinase 1B inhibitor with anti-adipogenic and anti-diabetic activities” (Frontiers in Pharmacology, 2025)
